Laboratory results from patent US4005213A, “2,5-Substituted-1,3,4-thiadiazoles as fungicides” (Schering Aktiengesellschaft, priority 1968, dated 1977).

What was measured:
[1] = system: Damping-off Fungi; test: Cotton seed disinfection in normal compost soil (Example 6); assay type: in vivo; details: 100 mg active ingr. per kg of seed, 15 days, 22°-25° C.
Experimental: Cotton seeds disinfected with 10% formulations were seeded in normal compost soil (Damping-off Fungi), 25 grains per concentration. After a cultivation time of 15 days at 22°-25° C., the number of germinated sound cotton seedlings and their weight as fresh plants were determined.

[2] = system: Aspergillus niger; test: Agar test, Aspergillus niger (Example 7); assay type: cell-based; details: 10 ppm in malt extract agar, 5 days at 22° C.; control 100
Experimental: (§1) The fungicidal action of the agents according to the invention was tested in artificial nutrient media against plant-pathogenic fungi in Petri dishes (agar test). The procedure was to sterilize the medium consisting of 2% malt extract and 1.5% agar-agar powder. Before the solidification of the medium, the active substances were added to it, mixing thoroughly, so that the medium received 10 parts of active substance per million (ppm). After the solidification of the medium, the latter was inoculated with a platinum dropper which contained 100 spores each of the fungi to be tested, and after 5 days at 22° C., an evaluation was made by measuring the diameter of the colonies in mm.

[3] = system: Pythium ultimum; test: Pea test in soil inoculated with Pythium ultimum (Example 2); assay type: in vivo; set-up: key to Root evaluation (1-4): 4 = white roots, no necroses … 1 = severe necroses, roots rotted; details: for Root evaluation (1-4): 3 weeks; for Number of sound peas after 3 wks.: 25 grains seeded
Experimental: Steamed compost soil was inoculated with mycelium of Pythium ultimum. […] The following table lists the number of germinated sound peas, the weight of the fresh plant, and a root evaluation after a cultivation period of 3 weeks at 22°-25° C.
4 = white roots, without fungus necroses
3 = white roots, slight fungus necroses
2 = brown roots, more intense fungus necroses
1 = severe fungus necroses, roots rotted

[4] = system: Pyrenochaeta lycopersici; test: Control of Pyrenochaeta lycopersici, corky root disease of the tomato, open field (Example 9); assay type: in vivo; details: for Weight of single tomato (% of untreated): 0 g = 100%; for Tomatoes per plant / Weight of single tomato / Yield per plant: 10% granulate
Text: Control of Pyrenochaeta lycopersici, corky root disease of the tomato.
On a naturally infested open field area, 2-dichloromethyl-5-methylsulfonyl-1,3,4-thiadiazole was scattered as a 10% granulate formulation and hoed in 20 cm deep. […] After a reaction period of 3 weeks, tomato plants of the variety "Ronald-M" which were 8 weeks old were set out at a distance from each other of 50 × 70 cm. The harvest results indicated in the table are average values of 40 plants per lot and refer to harvested ripe tomatoes.

[5] = system: Meloidogyne incognita; test: Nematocidal action against root gall nematodes, cucumber (Example 8); assay type: in vivo; details: reduction of attack, 30 days
Experimental: The products as 20% powder preparations were homogeneously admixed with a compost soil heavily infested by root gall nematodes. Without a waiting period, 20 cucumber seeds per concentration were seeded. After a cultivation time of 30 days at a temperature of 23°-25° C., the nematocidal action was evaluated by counting the root galls formed in the waterbath. The following table states the reduction of attack in percent. In the control, an average of 90 root galls per seedling had formed.

[6] = system: Rhizoctonia solani; test: Pea test in soil inoculated with Rhizoctonia solani (Example 3); assay type: in vivo; details: 3 weeks
Text: Steamed compost soil was inoculated with mycelium of Rhizoctonia solani. After homogeneous mixture of the products with the infested soil, the products were present in the form of 20% powder preparations, the seeding of 25 grains of marrow peas of the variety Miracle of Kelvedon per concentration was effected without waiting period in clay dishes holding 1 liter of soil. The table lists the number of germinated sound peas, the weight of the fresh plant, and a root evaluation after a cultivation period of 3 weeks at 22°-25° C.

[7] = system: Stemphylium ilicis; test: Agar test, Stemphylium ilicis (Example 7); assay type: cell-based; details: 10 ppm in malt extract agar, 5 days at 22° C.; control 100
Experimental: as §1

[8] = system: Pythium ultimum; test: Fungistatic and fungicidal action on Pythium ultimum of preparations with varying active ingredient percentages (Example 4); assay type: in vivo; details: for Number of sound peas after 3 wks.: 25 grains seeded
Text: Comparison of the fungistatic and fungicidal action on Pythium ultimum when using preparations with varying active ingredient percentages on siliceous clay. Steamed compost soil was inoculated with mycelium of Pythium ultimum. After forming a homogeneous mixture of the products with the infested soil, […], the seeding of 25 grains of marrow peas of the variety Miracle of Kelvedon per concentration in clay dishes holding 1 liter of soil followed without a waiting period. In the table is stated the number of germinated sound peas, the weight of the fresh plant, and a root evaluation after a cultivation period of 3 weeks at 22°-25° C.

[9] = system: Pythium ultimum; test: Limit concentration of soil-fungicidal effectiveness, Pythium ultimum infested soil, peas (Example 1); assay type: in vivo; details: Globisporangium ultimum, 20 to 23 days, 22°-25° C., germination at least 90% vs steamed soil
Experimental: (§2) Limit concentrations of the soil-fungicidal effectiveness at homogeneous mixture of the products with the infested soil. Basic condition in the evaluation are a sound root formation without fungus necroses and germination of the seed of at least 90% compared with the result obtained in steamed soil. Per concentration there were seeded 25 grains of peas of the variety "Miracle of Kelvedon" (marrow pea) without a waiting period. the cultivation time in the tests was 20 to 23 days at a temperature of 22°-25° C. Four commercial products were included in the test series.
Pythium ultimum: Steamed compost soil was inoculated with mycelium of Pythium ultimum

[10] = acute oral toxicity in rats; details: rat, in vivo
[11] = system: Rhizoctonia solani; test: Limit concentration of soil-fungicidal effectiveness, Rhizoctonia solani infested soil, peas (Example 1); assay type: in vivo; details: 20 to 23 days, 22°-25° C., germination at least 90% vs steamed soil
Experimental: as §2
Rhizoctonia solani: Steamed compost soil was inoculated with mycelium of Rhizoctoniz solani.

[12] = system: Helminthosporium sativum; test: Agar test, Helminthosporium sativum (Example 7); assay type: cell-based; details: 10 ppm in malt extract agar, 5 days at 22° C.; control 100
Experimental: as §1

[13] = system: Botrytis cinerea; test: Agar test, Botrytis cinerea (Example 7); assay type: cell-based; details: 10 ppm in malt extract agar, 5 days at 22° C.; control 100
Experimental: as §1

[14] = system: Colletotrichum gloeosporioides; test: Agar test, Colletotrichum gloeosporioides (Example 7); assay type: cell-based; details: 10 ppm in malt extract agar, 5 days at 22° C.; control 100
Experimental: as §1

[15] = 10 mg active ingr. per liter of soil
[16] = 20 mg active ingr. per liter of soil
[17] = 30 mg active ingr. per liter of soil
[18] = 10 g active ingr. per square meter
[19] = 20 g active ingr. per square meter
[20] = 5% formulation, 6 mg active ingr. per liter of soil
[21] = 5% formulation, 10 mg active ingr. per liter of soil
[22] = 10% formulation, 10 mg active ingr. per liter of soil
[23] = 20% formulation, 6 mg active ingr. per liter of soil
[24] = 200 mg active ingr. per liter of soil

CS(=O)(=O)c1nnc(C(Cl)Cl)s1 [Compound 17, 2-dichloromethyl-5-methylsulfonyl-1,3,4-thiadiazole]
Sound plants in % [1]: 100%
diameter of the colonies, Aspergillus niger [2]: 0 mm
Root evaluation (1-4) [3, 15]: 4
Root evaluation (1-4) [3, 16]: 4
Number of sound peas after 3 wks. [3, 16]: 24
Root evaluation (1-4) [3, 17]: 4
Number of sound peas after 3 wks. [3, 17]: 24
Weight of single tomato (% of untreated) [4, 18]: 110%
Tomatoes per plant [4, 18]: 27
Weight of single tomato [4, 18]: 66 g
Yield per plant [4, 18]: 1774 g
Weight of single tomato (% of untreated) [4, 19]: 130%
Tomatoes per plant [4, 19]: 28
Weight of single tomato [4, 19]: 78 g
Yield per plant [4, 19]: 2209 g
Nematocidal action in % (Meloidogyne incognita) ([5]; 40 mg active substance per liter of soil): 90%
Nematocidal action in % (Meloidogyne incognita) ([5]; 60 mg active substance per liter of soil): 94%
Root evaluation (1-4) [6, 16]: 4
Root evaluation (1-4) [6, 17]: 4
diameter of the colonies, Stemphylium ilicis [7]: 0 mm
Weight of fresh plant [8, 20]: 9 g
Number of sound peas after 3 wks. [8, 20]: 12
Weight of fresh plant [8, 21]: 20 g
Number of sound peas after 3 wks. [8, 21]: 24
Weight of fresh plant ([8]; 10% formulation, 6 mg active ingr. per liter of soil): 15 g
Weight of fresh plant [8, 22]: 24 g
Number of sound peas after 3 wks. [8, 22]: 22
Weight of fresh plant [8, 23]: 17 g
Number of sound peas after 3 wks. [8, 23]: 22
Weight of fresh plant ([8]; 20% formulation, 10 mg active ingr. per liter of soil): 16 g
minimal effective concentration [9]: 10 µg/mL

CS(=O)(=O)c1nnc(C(Cl)(Cl)Cl)s1 [Compound 21, 2-trichloromethyl-5-methylsulfonyl-1,3,4-thiadiazole]
Sound plants in % [1]: 100%
diameter of the colonies, Aspergillus niger [2]: 0 mm
Root evaluation (1-4) [6, 15]: 4
Root evaluation (1-4) [6, 16]: 4
Root evaluation (1-4) [6, 17]: 4
diameter of the colonies, Stemphylium ilicis [7]: 0 mm
LD50 [10]: 717 mg/kg
minimal effective concentration [9]: 40 µg/mL

CS(=O)(=O)c1nnc(C(F)(F)Cl)s1 [Compound 54, 2-chlorodifluoromethyl-5-methylsulfonyl-1,3,4-thiadiazole]
minimal effective concentration [11]: 20 µg/mL
minimal effective concentration [9]: 10 µg/mL

C[S+]([O-])c1nnc(C(F)(F)Cl)s1 (centres unmarked) [Compound 55, 2-chlorodifluoromethyl-5-methylsulfinyl-1,3,4-thiadiazole]
minimal effective concentration [11]: 10 µg/mL
minimal effective concentration [9]: 10 µg/mL

S=C([S-])NCCNC(=S)[S-].[Zn+2] [Zinc ethylene-bis-dithiocarbamate, reference compound]
diameter of the colonies, Aspergillus niger [2]: 78 mm
diameter of the colonies, Helminthosporium sativum [12]: 50 mm
diameter of the colonies, Botrytis cinerea [13]: 36 mm
Root evaluation (1-4) [3, 24]: 1
Number of sound peas after 3 wks. [3, 24]: 14
diameter of the colonies, Stemphylium ilicis [7]: 55 mm
diameter of the colonies, Colletotrichum gloeosporioides [14]: 81 mm
